Test results from ChEMBL document CHEMBL1201862, “PubChem BioAssay data set” (2004).
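Briefly, cells in 96-well plates were exposed to five compound concentrations for 48 h, and endpoints were estimated by linear interpolation. Abbreviation: GI50, concentration required for 50% inhibition of growth.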 Calls of active or inactive are those of the source. Rule as the data show it: active = GI50 up to about 1.1 µM and inactive = higher.

Legend:
Experiment in all cases: NCI tumour cell line growth inhibition, 48 h
SNB-19 = test system: SNB-19
TK-10 = test system: TK-10
RPMI-8226 = test system: RPMI-8226
UACC-62 = test system: UACC-62
EKVX = test system: EKVX
RXF 393 = test system: RXF 393
SF-268 = test system: SF-268
UO-31 = test system: UO-31
SF-295 = test system: SF-295
CAKI-1 = test system: CAKI-1
MDA-N = test system: MDA-N
A549 = test system: A549
OVCAR-3 = test system: OVCAR-3
SK-MEL-28 = test system: SK-MEL-28
IGROV-1 = test system: IGROV-1
MCF7 = test system: MCF7
HL-60 = test system: HL-60
HT-29 = test system: HT-29
SK-MEL-5 = test system: SK-MEL-5
NCI-H226 = test system: NCI-H226
DU-145 = test system: DU-145
NCI-H23 = test system: NCI-H23
Hs-578T = test system: Hs-578T
OVCAR-4 = test system: OVCAR-4
SR = test system: SR
SK-OV-3 = test system: SK-OV-3
SF-539 = test system: SF-539
MDA-MB-435 = test system: MDA-MB-435
ACHN = test system: ACHN
KM12 = test system: KM12
HOP-62 = test system: HOP-62
OVCAR-5 = test system: OVCAR-5
M14 = test system: M14
A498 = test system: A498
NCI-H460 = test system: NCI-H460
786-0 = test system: 786-0
U-251 = test system: U-251
UACC-257 = test system: UACC-257
OVCAR-8 = test system: OVCAR-8
MOLT-4 = test system: MOLT-4
SK-MEL-2 = test system: SK-MEL-2
HOP-92 = test system: HOP-92
NCI-H522 = test system: NCI-H522
Malme-3M = test system: Malme-3M
NCI/ADR-RES = test system: NCI/ADR-RES
SW-620 = test system: SW-620
CCRF-CEM = test system: CCRF-CEM
SNB-75 = test system: SNB-75
K562 = test system: K562
HCT-15 = test system: HCT-15
HCT-116 = test system: HCT-116
PC-3 = test system: PC-3
SN12C = test system: SN12C
MDA-MB-231 = test system: MDA-MB-231
COLO 205 = test system: COLO 205
LOX IMVI = test system: LOX IMVI

## O=C1c2c(O)cccc2Cc2cccc(O)c21 [ANTHRALIN]
SNB-19
  GI50: 0.435 µM (active)
TK-10
  GI50: 0.684 µM (active)
RPMI-8226
  GI50: 0.321 µM (active)
UACC-62
  GI50: 0.415 µM (active)
EKVX
  GI50: 0.2 µM (active)
RXF 393
  GI50: 0.32 µM (active)
SF-268
  GI50: 0.376 µM (active)
UO-31
  GI50: 0.3 µM (active)
SF-295
  GI50: 0.269 µM (active)
CAKI-1
  GI50: 0.337 µM (active)
MDA-N
  GI50: 0.321 µM (active)
A549
  GI50: 0.334 µM (active)
OVCAR-3
  GI50: 0.382 µM (active)
SK-MEL-28
  GI50: 0.783 µM (active)
IGROV-1
  GI50: 0.375 µM (active)
MCF7
  GI50: 0.255 µM (active)
HL-60
  GI50: 0.259 µM (active)
HT-29
  GI50: 0.322 µM (active)
SK-MEL-5
  GI50: 0.178 µM (active)
NCI-H226
  GI50: 0.314 µM (active)
DU-145
  GI50: 0.264 µM (active)
NCI-H23
  GI50: 0.327 µM (active)
Hs-578T
  GI50: 0.29 µM (active)
OVCAR-4
  GI50: 0.447 µM (active)
SR
  GI50: 0.31 µM (active)
SK-OV-3
  GI50: 0.351 µM (active)
SF-539
  GI50: 0.273 µM (active)
MDA-MB-435
  GI50: 0.348 µM (active)
ACHN
  GI50: 0.319 µM (active)
KM12
  GI50: 0.355 µM (active)
HOP-62
  GI50: 0.347 µM (active)
OVCAR-5
  GI50: 0.57 µM (active)
M14
  GI50: 0.256 µM (active)
A498
  GI50: 1.22 µM (inactive)
NCI-H460
  GI50: 0.334 µM (active)
786-0
  GI50: 0.386 µM (active)
U-251
  GI50: 0.313 µM (active)
UACC-257
  GI50: 0.216 µM (active)
OVCAR-8
  GI50: 0.321 µM (active)

## CC(C)(C)/N=c1/n(C(C)(C)C)oc(=O)n1-c1ccccc1
SNB-19
  GI50: > 50 µM (inactive)
TK-10
  GI50: > 50 µM (inactive)
RPMI-8226
  GI50: > 50 µM (inactive)
UACC-62
  GI50: > 50 µM (inactive)
EKVX
  GI50: > 50 µM (inactive)
RXF 393
  GI50: > 50 µM (inactive)
SF-268
  GI50: > 50 µM (inactive)
UO-31
  GI50: > 50 µM (inactive)
SF-295
  GI50: > 50 µM (inactive)
MOLT-4
  GI50: > 50 µM (inactive)
SK-MEL-2
  GI50: > 50 µM (inactive)
CAKI-1
  GI50: > 50 µM (inactive)
HOP-92
  GI50: > 50 µM (inactive)
MDA-N
  GI50: > 50 µM (inactive)
A549
  GI50: > 50 µM (inactive)
OVCAR-3
  GI50: > 50 µM (inactive)
NCI-H522
  GI50: > 50 µM (inactive)
SK-MEL-28
  GI50: > 50 µM (inactive)
IGROV-1
  GI50: > 50 µM (inactive)
MCF7
  GI50: > 50 µM (inactive)
HL-60
  GI50: 41.1 µM (inactive)
HT-29
  GI50: > 50 µM (inactive)
SK-MEL-5
  GI50: > 50 µM (inactive)
NCI-H226
  GI50: > 50 µM (inactive)
Malme-3M
  GI50: > 50 µM (inactive)
NCI/ADR-RES
  GI50: > 50 µM (inactive)
SW-620
  GI50: > 50 µM (inactive)
CCRF-CEM
  GI50: > 50 µM (inactive)
DU-145
  GI50: > 50 µM (inactive)
NCI-H23
  GI50: > 50 µM (inactive)
SNB-75
  GI50: 35.6 µM (inactive)
Hs-578T
  GI50: > 50 µM (inactive)
OVCAR-4
  GI50: > 50 µM (inactive)
K562
  GI50: > 50 µM (inactive)
SR
  GI50: > 50 µM (inactive)
SK-OV-3
  GI50: > 50 µM (inactive)
SF-539
  GI50: > 50 µM (inactive)
MDA-MB-435
  GI50: > 50 µM (inactive)
HCT-15
  GI50: > 50 µM
ACHN
  GI50: > 50 µM (inactive)
KM12
  GI50: > 50 µM (inactive)
HOP-62
  GI50: > 50 µM (inactive)
OVCAR-5
  GI50: > 50 µM (inactive)
HCT-116
  GI50: > 50 µM (inactive)
PC-3
  GI50: > 50 µM (inactive)
M14
  GI50: > 50 µM (inactive)
A498
  GI50: > 50 µM (inactive)
NCI-H460
  GI50: > 50 µM (inactive)
786-0
  GI50: > 50 µM (inactive)
U-251
  GI50: > 50 µM (inactive)
SN12C
  GI50: > 50 µM (inactive)
MDA-MB-231
  GI50: > 50 µM (inactive)
UACC-257
  GI50: > 50 µM (inactive)
OVCAR-8
  GI50: > 50 µM (inactive)
COLO 205
  GI50: > 50 µM (inactive)
LOX IMVI
  GI50: > 50 µM (inactive)
